This note sets out measurements from PubChem BioAssay AID248 (DTP/NCI, 2004).

Where “and” joins values, the source holds several entries; their conditions need not be identical. Equal values may be shown once. Inconclusive results and toxic doses are left out.

In the assay the test system is L1210 leukemia ip in BDF1 mice, survival T/C. Kind of assay: NCI In Vivo Anticancer Drug Screen. Data for tumor model L1210 Leukemia (intraperitoneal) in B6D2F1 (BDF1) mice. To be noted: endpoint: mean survival time, higher = longer survival. The method in brief:
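Value reflects the ratio of survival in compound-treated mice to survival in vehicle-treated controls, with both groups carrying the same transplanted tumor.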

Where [1] appears, read: dose: 100.0 mg/kg/injection, schedule: Q01DX009 (ip), vehicle: Klucel (hydroxypropylcellulose) (HPC).
Where [2] appears, read: dose: 200.0 mg/kg/injection, schedule: Q01DX009 (ip), vehicle: Klucel (hydroxypropylcellulose) (HPC).
[3] abbreviates: dose: 400.0 mg/kg/injection, schedule: Q01DX009 (ip), vehicle: Klucel (hydroxypropylcellulose) (HPC).
The mark [4] stands for this setting: dose: 100.0 mg/kg/injection, schedule: Q04DX003 (ip), vehicle: Klucel (hydroxypropylcellulose) (HPC).
Setting [5] is: dose: 200.0 mg/kg/injection, schedule: Q04DX003 (ip), vehicle: Klucel (hydroxypropylcellulose) (HPC).
Setting [6] is: dose: 100.0 mg/kg/injection, schedule: Q04DX003 (ip), vehicle: saline.
The mark [7] stands for this setting: dose: 200.0 mg/kg/injection, schedule: Q04DX003 (ip), vehicle: saline.
Where [8] appears, read: dose: 100.0 mg/kg/injection, schedule: Q04DX003 (ip), vehicle: saline with Tween-80.
Setting [9] is: dose: 200.0 mg/kg/injection, schedule: Q04DX003 (ip), vehicle: saline with Tween-80.
Setting [10] is: dose: 400.0 mg/kg/injection, schedule: Q04DX003 (ip), vehicle: saline with Tween-80.
Where [11] appears, read: dose: 100.0 mg/kg/injection, schedule: Q01DX001 (ip), vehicle: saline.

With `COc1cccc2c1C(=O)c1c(O)c3c(c(O)c1C2=O)C[C@@](O)(/C(C)=N/N1CCCCC1)C[C@@H]3OC1CC(N)C(O)C(C)O1` (stereo partly drawn), the T/C is 114 % of control (dose: 0.12 mg/kg/injection, schedule: Q01DX009 (ip), vehicle: water); 113 % of control (dose: 0.25 mg/kg/injection, schedule: Q01DX009 (ip), vehicle: water); 110 % of control (dose: 0.25 mg/kg/injection, schedule: Q04DX003 (ip), vehicle: water); 117 % of control (dose: 0.5 mg/kg/injection, schedule: Q01DX009 (ip), vehicle: water); 118 % of control (dose: 0.5 mg/kg/injection, schedule: Q04DX003 (ip), vehicle: water); 116 % of control (dose: 1.0 mg/kg/injection, schedule: Q04DX003 (ip), vehicle: water). Besides, the T/C runs as follows: (dose: 2.0 mg/kg/injection, schedule: Q01DX009 (ip), vehicle: water) 119 % of control; (dose: 3.12 mg/kg/injection, schedule: Q01DX009 (ip), vehicle: saline with Tween-80) 150 % of control; (dose: 4.0 mg/kg/injection, schedule: Q01DX009 (ip), vehicle: water) 114 % of control and 88 % of control; (dose: 6.25 mg/kg/injection, schedule: Q01DX009 (ip), vehicle: saline with Tween-80) 123 % of control; (dose: 16.0 mg/kg/injection, schedule: Q04DX003 (ip), vehicle: water) 86 % of control.

In the case of `COc1cc(CCCC(=O)O)c(OC)c(C)c1C`, the T/C by setting is: (dose: 100.0 mg/kg/injection, schedule: Q01DX001 (ip), vehicle: Klucel (hydroxypropylcellulose) (HPC)) 93 % of control; under setting [1], 97 % of control; (dose: 200.0 mg/kg/injection, schedule: Q01DX001 (ip), vehicle: Klucel (hydroxypropylcellulose) (HPC)) 98 % of control; under setting [2], 103 % of control; (dose: 400.0 mg/kg/injection, schedule: Q01DX001 (ip), vehicle: Klucel (hydroxypropylcellulose) (HPC)) 95 % of control; under setting [3], 101 % of control.

On to `Clc1nc2nc(C(Cl)(Cl)Cl)[nH]c2nc1Cl`, for which the T/C reads like this: (dose: 6.25 mg/kg/injection, schedule: Q01DX009 (ip), vehicle: Klucel (hydroxypropylcellulose) (HPC)) 103 % of control; (dose: 12.5 mg/kg/injection, schedule: Q01DX009 (ip), vehicle: Klucel (hydroxypropylcellulose) (HPC)) 102 % of control; (dose: 25.0 mg/kg/injection, schedule: Q01DX009 (ip), vehicle: Klucel (hydroxypropylcellulose) (HPC)) 115 % of control; (dose: 50.0 mg/kg/injection, schedule: Q01DX009 (ip), vehicle: Klucel (hydroxypropylcellulose) (HPC)) 105 % of control; under setting [4], 97 % of control; under setting [5], 100 % of control.

As to `CSc1ccc(NC(=S)NCCc2ccccc2)cc1`, the T/C by setting is: under setting [1], 114 % of control; under setting [2], 97 % of control; under setting [3], 102 % of control.

`CN1CCC(O)(c2ccccc2)C(/C(=N/O)c2ccccc2)C1` (stereo not drawn): the T/C is, setting by setting: under setting [6], 97 % of control; under setting [7], 90 % of control.

For `CCOc1ccc(NP(=O)(Oc2c(F)c(F)c(F)c(F)c2F)N(CCCl)CCCl)cc1` (stereo not drawn), the T/C is 95 % of control (dose: 62.5 mg/kg/injection, schedule: Q01DX001 (ip), vehicle: other); 90 % of control (dose: 125.0 mg/kg/injection, schedule: Q01DX001 (ip), vehicle: other); 89 % of control (dose: 250.0 mg/kg/injection, schedule: Q01DX001 (ip), vehicle: other); 87 % of control (dose: 500.0 mg/kg/injection, schedule: Q01DX001 (ip), vehicle: other).

Take `Nc1cccs1`: the T/C is 100 % of control (dose: 8.12 mg/kg/injection, schedule: Q01DX009 (ip), vehicle: saline); 94 % of control (dose: 9.37 mg/kg/injection, schedule: Q01DX009 (ip), vehicle: other); 100 % of control (dose: 16.25 mg/kg/injection, schedule: Q01DX009 (ip), vehicle: saline); 107 % of control (dose: 18.75 mg/kg/injection, schedule: Q01DX009 (ip), vehicle: other); 107 % of control (dose: 37.5 mg/kg/injection, schedule: Q01DX009 (ip), vehicle: other); 96 % of control (dose: 75.0 mg/kg/injection, schedule: Q01DX009 (ip), vehicle: other). For the same compound, the T/C (dose: 100.0 mg/kg/injection, schedule: Q01DX009 (ip), vehicle: saline) was 153 % of control; the T/C (dose: 150.0 mg/kg/injection, schedule: Q01DX009 (ip), vehicle: other) is 96 % of control; the T/C (dose: 300.0 mg/kg/injection, schedule: Q01DX009 (ip), vehicle: other) was 102 % of control.

For `CCOC(=O)NNOC(=O)CC`, the T/C reads like this: (dose: 100.0 mg/kg/injection, schedule: Q01DX001 (ip), vehicle: saline with Tween-80) 92 % of control; (dose: 200.0 mg/kg/injection, schedule: Q01DX001 (ip), vehicle: saline with Tween-80) 95 % of control.

As for `NC(N)=N/N=C\CC(O)CO` (stereo not drawn), the T/C runs as follows: (dose: 15.0 mg/kg/injection, schedule: Q01DX Z (ip), vehicle: methylcellulose (MC)) 100 % of control; (dose: 30.0 mg/kg/injection, schedule: Q01DX Z (ip), vehicle: methylcellulose (MC)) 103 % of control; (dose: 60.0 mg/kg/injection, schedule: Q01DX Z (ip), vehicle: methylcellulose (MC)) 100 % of control; (dose: 60.0 mg/kg/injection, schedule: Q01DX Z (oral), vehicle: methylcellulose (MC)) 97 % of control; (dose: 120.0 mg/kg/injection, schedule: Q01DX Z (ip), vehicle: methylcellulose (MC)) 103 % of control; (dose: 120.0 mg/kg/injection, schedule: Q01DX Z (oral), vehicle: methylcellulose (MC)) 94 % of control. For the same compound, the T/C reads like this: (dose: 240.0 mg/kg/injection, schedule: Q01DX Z (oral), vehicle: methylcellulose (MC)) 88 % of control; (dose: 480.0 mg/kg/injection, schedule: Q01DX Z (oral), vehicle: methylcellulose (MC)) 86 % of control.

As for `CC1=NOC(=O)C1C(C)(C)C1C(=O)ON=C1C` (stereo not drawn), the T/C reads like this: under setting [8], 101 % of control; under setting [9], 95 % of control; under setting [10], 101 % of control.

As for `c1ccc2c(c1)ncc1cccn12`, the T/C runs as follows: under setting [11], 103 % of control; (dose: 200.0 mg/kg/injection, schedule: Q01DX001 (ip), vehicle: saline) 103 % of control; (dose: 400.0 mg/kg/injection, schedule: Q01DX001 (ip), vehicle: saline) 103 % of control.

As to `CCOC(=O)C(C#N)=C(C)C`, the T/C (dose: 75.0 mg/kg/injection, schedule: Q01DX001 (ip), vehicle: other) was 103 % of control; the T/C under setting [11] is 97 % of control; the T/C under setting [6] is 97 % of control; the T/C under setting [7] was 94 % of control.

As for `Cc1ccc(NC(=O)COc2cc(Cl)c(Cl)cc2Cl)c([N+](=O)[O-])c1`, the T/C is 105 % of control under setting [1]; 106 % of control under setting [4]; 89 % of control under setting [2]; 102 % of control under setting [5]; 89 % of control under setting [3]; 93 % of control (dose: 400.0 mg/kg/injection, schedule: Q04DX003 (ip), vehicle: Klucel (hydroxypropylcellulose) (HPC)).

In the case of `CCCCCCCCCCCCOc1ccc(C(C)(C)C)cc1`, the T/C reads like this: (dose: 100.0 mg/kg/injection, schedule: Q01DX007 (ip), vehicle: saline with Tween-80) 97 % of control; under setting [8], 100 % of control; (dose: 200.0 mg/kg/injection, schedule: Q01DX007 (ip), vehicle: saline with Tween-80) 96 % of control; under setting [9], 95 % of control; (dose: 400.0 mg/kg/injection, schedule: Q01DX007 (ip), vehicle: saline with Tween-80) 97 % of control; under setting [10], 101 % of control.
